We go through 31 compounds from patent US8673929B2, “4,6-di- and 2,4,6-trisubstituted quinazoline derivatives and pharmaceutical compositions useful for treating viral infections” (priority 2006, dated 2014).

For one series, the system named is HCV replicon. Put plainly: Anti-HCV replicon assay, EC50 (luciferase readout). Format: cell-based. As to conditions: Huh-7 HCV replicon cells, 3 days incubation, luciferase luminescence. The protocol: (§1) The anti HCV activity of the quinazoline derivatives of this invention was tested in a human hepatoma Huh-7 cell line harbouring a HCV replicon. The assay comprised the following steps:
(§2) Step 1: compound preparation and serial dilution • 1. for water soluble quinazoline derivatives, a volume of 500 μL of solution in cell media (DMEM, 10% FBS, P/S, L-Glutamine) was prepared with a concentration being twice the concentration of the starting final serial dilution concentration. A volume of 150 μL of the solution was added to the pre-specified wells in column 1 of a 96-well cell culture plate (PerkinElmer, white plate, cat. #6005181, for EC50 assay; black plate, cat. #6005182 for CC50 assay). The rest of the plate, columns 2-12, was filled with 100 μL of cell media. The plate was then placed on a Precision 2000 Workstation to start the serial dilution. Compounds were diluted three times each step from column 1 to column 10. Column 11 was used as a blank control (no compound added). • 2. for quinazoline derivatives requiring DMSO to dissolve, serial dilution is performed in 50% DMSO in a 384-well plate. A solution containing a compound at 100-fold concentration of the starting final serial dilution concentration was prepared in 50% DMSO and added to the pre-specified wells in column 1 of a polypropylene 384-well plate. The plate was then placed on a Precision 2000 Workstation to start the serial dilution. After the serial dilution, a volume of 2 μL of the solution was transferred from the 384-well plate to a 96-well cell culture plate containing 100 μL of cell media on a Biomek FX Workstation. The DMSO concentration in the final assay condition was 0.5% after cells are added to the plate and the total volume in each well is brought to 200 μL.
(§3) Step 2: to each well of the serial dilution plate prepared above, 100 μL of cell media containing 6000 suspended Huh-7 HCV replicon cells was added with a Multidrop workstation. The plates were incubated for 3 days at 37° C. with 5% CO2.
(§4) Step 3: detection: • a) for the EC50 assay, the media in a 96-well cell culture plate was aspirated with a Biotek EL405 plate-washer. A volume of 200 μL of a solution containing a 1:1 mixture of cell-lysis buffer (Promega, Luciferase Cell Culture Lysis 5× Reagent, cat. #E1531) and luciferase substrate solution (Promega, Luciferase Assay, cat.# E4550) was added to each well of the plate with Multidrop. The plate was incubated for 30 minutes at room temperature before the luminescence signal was measured with a TopCount plate-reader. • b) for the CC50 assay, a volume of 100 μL of pre-mixed CellTiter-Glo (Promega, cat.# G7572) solution is added directly to the cell culture in each well of the plate and the luminescence signal is measured with a TopCount plate-reader after 10 minutes of incubation at room temperature.
(§5) Results in the table below are expressed by the following data: • the 50% cytostatic concentration (CC50), i.e. the concentration that results in 50% inhibition of cell growth, and • the 50% effective concentration (EC50), i.e. the concentration that […].

Series [1] can be described thus: CC50 assay in the anti-HCV replicon assay (CellTiter-Glo). The series is classed as cell-based, human. As to conditions: human, Huh-7 hepatoma cells harbouring an HCV replicon; Huh-7 HCV replicon cells, 3 days incubation, CellTiter-Glo luminescence. The protocol: as §1, §2, §3, §4, §5

With `CCOc1nc(NCc2ccc(S(N)(=O)=O)cc2)nc2ccc(-c3ccc(F)c(NS(=O)(=O)C4CC4)c3)cc12` [Example 251, 4-{[6-(3-Cyclopropanesulfonylamino-4-fluoro-phenyl)-4-ethoxy-quinazolin-2-ylamino]-methyl}-benzenesulfonamide], the EC50 in the series with HCV replicon (Hepatitis C virus, 72 h) is < 0.3 µM. The CC50 at 3 days in series [1] was < 10 µM.

Take `CC(C)Oc1nc(N)nc2ccc(-c3cnc4ccccc4c3)cc12` [Example 101, 4-Isopropoxy-6-quinolin-3-yl-quinazolin-2-ylamine]: the EC50 with HCV replicon (Hepatitis C virus, 72 h) is 1 to 10 µM. This compound also displayed a CC50 at 3 days in series [1] of 10 to 20 µM.

In the case of `CCOc1nc(N)nc2ccc(-c3ccc(F)c(F)c3)cc12` [Example 46, 6-(3,4-Difluoro-phenyl)-4-ethoxy-quinazolin-2-ylamine], the EC50 with HCV replicon (Hepatitis C virus, 72 h) is 1 to 10 µM. In series [1], the CC50 at 3 days was > 20 µM.

Take `Nc1nc(OCC2CCC2)c2cc(-c3cn[nH]c3)ccc2n1` [Example 120, 4-Cyclobutylmethoxy-6-(2H-pyrazol-4-yl)-quinazolin-2-ylamine]: the EC50 in the series on HCV replicon (Hepatitis C virus, 72 h) lay within 0.3 to 1 µM. In addition, the CC50 at 3 days in series [1] was in the range of 10 to 20 µM.

As to `COCCOc1nc(N)nc2ccc(-c3ccc(F)cc3)cc12` [Example 20, 2-amino-6-(4-fluorophenyl)-4-(2-methoxyethoxy)-quinazoline], the EC50 with HCV replicon (Hepatitis C virus, 72 h) was 1 to 10 µM. In addition, the CC50 at 3 days in series [1] is 10 to 20 µM.

In turn, `CC(C)CNC(=O)c1ccc(-c2ccc3nc(N)nc(OC(C)C)c3c2)cc1` [Example 171, 4-(2-Amino-4-isopropoxy-quinazolin-6-yl)-N-isobutyl-benzamide] yielded an EC50 in the series on HCV replicon (Hepatitis C virus, 72 h) of 0.3 to 1 µM. The same compound yielded a CC50 at 3 days in series [1] of 10 to 20 µM.

`Nc1nc(OCC(F)(F)F)c2cc(-c3ccc(F)cc3)ccc2n1` [Example 26, 2-amino-6-(4-fluorophenyl)-4-(2,2,2-trifluoroethoxy)-quinazoline]: in the series on HCV replicon (Hepatitis C virus, 72 h), the EC50 fell in the range of 1 to 10 µM. Also, in series [1], the CC50 at 3 days was 10 to 20 µM.

The compound `CN(C)CCCOc1nc(N)nc2ccc(-c3cc(F)c(F)c(F)c3)cc12` [Example 230, 4-(3-Dimethylamino-propoxy)-6-(3,4,5-trifluoro-phenyl)-quinazolin-2-ylamine] showed an EC50 in the series with HCV replicon (Hepatitis C virus, 72 h) of 1 to 10 µM. For the same compound, the CC50 at 3 days in series [1] is > 20 µM.

In the series on HCV replicon (Hepatitis C virus, 72 h), `CCOc1nc(N)nc2ccc(-c3ccc(N)cc3)cc12` [Example 49, 6-(4-Amino-phenyl)-4-ethoxy-quinazolin-2-ylamine] yielded an EC50 of 1 to 10 µM. For the same compound, the CC50 at 3 days in series [1] is > 20 µM.

On to `CC(C)Oc1nc(N)nc2ccc(-c3cc4ccccc4o3)cc12` [Example 86, 6-Benzofuran-2-yl-4-isopropoxy-quinazolin-2-ylamine], for which the 50% effective concentration (EC50) with HCV replicon (Hepatitis C virus, 72 h) is 0.3 to 1 µM. In addition, the CC50 at 3 days in series [1] is > 20 µM.

Turning to `CNC(=O)c1cccc(-c2ccc3nc(N)nc(OC(C)C)c3c2)c1` [Example 186, 3-(2-Amino-4-isopropoxy-quinazolin-6-yl)-N-methyl-benzamide], the 50% effective concentration (EC50) with HCV replicon (Hepatitis C virus, 72 h) is 0.3 to 1 µM. The compound further came in with a CC50 at 3 days in series [1] of 10 to 20 µM.

As to `Nc1nc(OCCF)c2cc(-c3ccc(C(=O)N4CCSC4)cc3)ccc2n1` [Example 204, {4-[2-Amino-4-(2-fluoro-ethoxy)-quinazolin-6-yl]-phenyl}-thiazolidin-3-yl-methanone], in the series with HCV replicon (Hepatitis C virus, 72 h), the EC50 fell in the range of 1 to 10 µM. Besides, the CC50 at 3 days in series [1] was > 20 µM.

As for `COCCOc1nc(N)nc2ccc(-c3ccc(N)cc3)cc12` [Example 65, 6-(4-Amino-phenyl)-4-(2-methoxy-ethoxy)-quinazolin-2-ylamine], the EC50 in the series with HCV replicon (Hepatitis C virus, 72 h) is 1 to 10 µM. In addition, in series [1], the cytotoxic concentration (CC50) at 3 days is > 20 µM.

Compound `CCCCNC(=O)c1ccc(-c2ccc3nc(N)nc(OCC)c3c2)cc1` [Example 152, 4-(2-Amino-4-ethoxy-quinazolin-6-yl)-N-butyl-benzamide] yielded an EC50 in the series with HCV replicon (Hepatitis C virus, 72 h) of 0.3 to 1 µM. The CC50 at 3 days in series [1] is > 20 µM.

The compound `CCCc1ncnc2ccc(-c3ccc(F)cc3)cc12` [Example 259, 6-(4-Fluoro-phenyl)-4-propyl-quinazoline] came in with an EC50 in the series on HCV replicon (Hepatitis C virus, 72 h) of 1 to 10 µM. Besides, in series [1], the CC50 at 3 days is > 20 µM.

In turn, `CC(C)Oc1ncnc2ccc(-c3ccsc3)cc12` [Example 244, 4-isopropoxy-6-thiophen-3-yl-quinazoline] showed an EC50 with HCV replicon (Hepatitis C virus, 72 h) of 1 to 10 µM. Also, the CC50 at 3 days in series [1] is > 20 µM.

For `CCOc1nc(NCc2ccc(S(N)(=O)=O)cc2)nc2ccc(-c3ccc(C(N)=O)cc3)cc12` [Example 255, 4-[4-Ethoxy-2-(4-sulfamoyl-benzylamino)-quinazolin-6-yl]-benzamide], the EC50 with HCV replicon (Hepatitis C virus, 72 h) is < 0.3 µM. For the same compound, the cytotoxic concentration (CC50) at 3 days in series [1] was < 10 µM.

Consider `Nc1nc(OCc2ccccc2)c2cc(-c3cn[nH]c3)ccc2n1` [Example 72, 4-benzyloxy-6-(1H-pyrazol-4-yl)-quinazolin-2-ylamine], for which the half-maximal effective concentration (EC50) in the series with HCV replicon (Hepatitis C virus, 72 h) was 1 to 10 µM. For the same compound, the CC50 at 3 days in series [1] was > 20 µM.

In the case of `CC(C)Oc1nc(N)nc2ccc(-c3ccncc3)cc12` [Example 92, 4-Isopropoxy-6-pyridin-4-yl-quinazolin-2-ylamine], the EC50 in the series on HCV replicon (Hepatitis C virus, 72 h) was 0.3 to 1 µM. The compound also came in with a half-maximal cytotoxic concentration (CC50) at 3 days in series [1] of 10 to 20 µM.

On to `CC(C)Oc1nc(N)nc2ccc(-c3ccc(C(=O)NCCN(C)C)cc3)cc12` [Example 178, 4-(2-Amino-4-isopropoxy-quinazolin-6-yl)-N-(2-dimethylamino-ethyl)-benzamide], for which the EC50 in the series with HCV replicon (Hepatitis C virus, 72 h) was < 0.3 µM. For the same compound, the CC50 at 3 days in series [1] is < 10 µM.

`CCOc1nc(N)nc2ccc(-c3ccc(NC(C)=O)cc3)cc12` [Example 30, 2-amino-6-(4-acetamidophenyl)-4-ethoxy-quinazoline] gave an EC50 with HCV replicon (Hepatitis C virus, 72 h) of 0.3 to 1 µM. Moreover, the CC50 at 3 days in series [1] is > 20 µM.

`CCOc1nc(N)nc2ccc(-c3ccc(C(=O)NC4CC4)c(Cl)c3)cc12` [Example 165, 4-(2-Amino-4-ethoxy-quinazolin-6-yl)-2-chloro-N-cyclopropyl-benzamide] showed an EC50 in the series on HCV replicon (Hepatitis C virus, 72 h) of 1 to 10 µM. In addition, the CC50 at 3 days in series [1] was > 20 µM.

Compound `CCOc1nc(NCc2ccc(S(N)(=O)=O)cc2)nc2ccc(-c3ccc(F)cc3)cc12` [Example 250, 4-{[4-Ethoxy-6-(4-fluoro-phenyl)-quinazolin-2-ylamino]-methyl}-benzenesulfonamide] showed an EC50 with HCV replicon (Hepatitis C virus, 72 h) of 1 to 10 µM. Besides, the CC50 at 3 days in series [1] is < 10 µM.

As to `Cc1ccccc1-c1ccc2nc(N)nc(OCC3CCC3)c2c1` [Example 105, 4-Cyclobutylmethoxy-6-o-tolyl-quinazolin-2-ylamine], the EC50 in the series with HCV replicon (Hepatitis C virus, 72 h) lay in the range of 1 to 10 µM. This compound also came in with a CC50 at 3 days in series [1] of 10 to 20 µM.

With `CC(C)Oc1nc(N)nc2ccc(-c3ccc(O)cc3)cc12` [Example 100, 4-(2-Amino-4-isopropoxy-quinazolin-6-yl)-phenol], the EC50 in the series on HCV replicon (Hepatitis C virus, 72 h) is < 0.3 µM. In series [1], the CC50 at 3 days fell in the range of 10 to 20 µM.

In the series with HCV replicon (Hepatitis C virus, 72 h), `COCCOc1nc(N)nc2ccc(-c3ccc(NC(C)=O)cc3)cc12` [Example 28, 2-amino-6-(4-acetamidophenyl)-4-(2-methoxyethoxy)-quinazoline] returned an EC50 of 0.3 to 1 µM. The CC50 at 3 days in series [1] was in the range of 10 to 20 µM.

`CCOc1nc(N)nc2ccc(-c3ccc(C(=O)NCc4ccccc4)cc3)cc12` [Example 149, 4-(2-Amino-4-ethoxy-quinazolin-6-yl)-N-benzyl-benzamide]: the EC50 in the series with HCV replicon (Hepatitis C virus, 72 h) lay within 1 to 10 µM. For the same compound, the CC50 at 3 days in series [1] was > 20 µM.

Consider `N#Cc1cccc(-c2ccc3nc(N)nc(OCC4CCC4)c3c2)c1` [Example 119, 3-(2-Amino-4-cyclobutylmethoxy-quinazolin-6-yl)-benzonitrile], for which the EC50 with HCV replicon (Hepatitis C virus, 72 h) lay within 1 to 10 µM. In addition, in series [1], the CC50 at 3 days is 10 to 20 µM.

In the series with HCV replicon (Hepatitis C virus, 72 h), `CN(C)CCCOc1nc(N)nc2ccc(-c3ccc(Cl)cc3)cc12` [Example 232, 6-(4-Chloro-phenyl)-4-(3-dimethylamino-propoxy)-quinazolin-2-ylamine] displayed an EC50 of 1 to 10 µM. Besides, the CC50 at 3 days in series [1] was > 20 µM.

For the compound `COCCOc1nc(N)nc2ccc(-c3cccs3)cc12` [Example 58, 4-(2-Methoxy-ethoxy)-6-thiophen-2-yl-quinazolin-2-ylamine], in the series on HCV replicon (Hepatitis C virus, 72 h), the EC50 was 1 to 10 µM. Moreover, the cytotoxic concentration (CC50) at 3 days in series [1] is > 20 µM.

Compound “4-(4-(2-methmethoxy)-quinazolin-6-yl)-N-methyl-benzamide [Example 246]” had an EC50 at HCV replicon of 1 to 10 µM.
